Measured values taken from PubChem BioAssay (NCI).
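A five-concentration, 48-hour dose response in 96-well plates underlies each endpoint, interpolated linearly between surrounding concentrations. At the TGI there is no net growth.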

Each molecule was assayed on RPMI-8226 leukemia (assay: NCI anticancer screen, dose series, 48 h).

**Q.** `COc1ccc(CC2Cc3ccccc3CCN2)cc1OC` (configuration not stated) was tested. Which TGI did it give?
**A.** > 50 µM

**Q.** How did the TGI turn out when `OCC1OC(NC(=S)NCCC(F)(F)C(F)(F)C(F)(F)C(F)(F)C(F)(F)C(F)(F)F)C(O)C(O)C1O` (configuration not stated) was run?
**A.** > 100 µM

**Q.** `CSC1=N/C(=C\c2ccc(C)cc2)C(=O)N1` was tested. Which TGI did it give?
**A.** > 100 µM

**Q.** For `COc1cc2c(cc1OCCCNC(=O)c1cc3ccccc3[nH]1)N=C[C@@H]1CCCN1C2=O`, which TGI is on record?
**A.** > 100 µM

**Q.** With `COC(=O)/C(C)=N/NC(=S)SC` as the molecule, how does the TGI read?
**A.** > 100 µM

**Q.** How did the TGI turn out when `CC1=CC[C@H](C[C@H](C#CCCCC2OCCO2)O[Si](C(C)C)(C(C)C)C(C)C)C(=O)CC1` was run?
**A.** > 100 µM

**Q.** `CC1=NN(c2cccc(S(=O)(=O)O)c2)C2(C1)C(Cl)C(=O)N2c1nc2ccccc2s1` (configuration not stated) was tested. Which TGI did it give?
**A.** 4.47 µM

**Q.** For `[O-][n+]1nc(N2CCOCC2)nc2ccccc21`, which TGI is on record?
**A.** > 100 µM

**Q.** With `COc1ccc(NC(=S)Nc2cc(C)ccn2)cc1` as the molecule, how does the TGI read?
**A.** > 100 µM

**Q.** With `Cc1sc2nc(N(C)C)oc(=O)c2c1C` as the molecule, how does the TGI read?
**A.** > 100 µM

**Q.** For `Cc1cccc(N/C(=C(/C(Cl)=C(Cl)Cl)[N+](=O)[O-])n2nnc3ccccc32)c1`, which TGI is on record?
**A.** > 100 µM

**Q.** `NC(CSS(=O)(=O)O)=NC1CC2CCC1C2` (configuration not stated) was tested. Which TGI did it give?
**A.** > 100 µM

**Q.** For `CN1CCC23c4c5ccc(Oc6nnnn6-c6ccccc6)c4OC2c2[nH]c4ccccc4c2CC3(O)C1C5` (configuration not stated), which TGI is on record?
**A.** 6.06 µM

**Q.** How did the TGI turn out when `Cc1cn(C2OC(CO[Si](C)(C)C(C)(C)C)/C(=C\C#N)C2O[Si](C)(C)C(C)(C)C)c(=O)[nH]c1=O` (configuration not stated) was run?
**A.** > 100 µM

**Q.** For `C[C@]12CCC(O)CC1=CC[C@@H]1[C@@H]2CC[C@]2(C)C(O)[C@H](n3ccnc3)C[C@@H]12` (some centres not stated), which TGI is on record?
**A.** > 100 µM

**Q.** `O=C(CC(O)(C(F)(F)F)C(F)(F)F)C(c1ccccc1)C(O)(C(F)(F)F)C(F)(F)F` (configuration not stated) was tested. Which TGI did it give?
**A.** > 100 µM

**Q.** How did the TGI turn out when `CC(C)CCCC(C)[C@H]1CC[C@H]2n3c(nnc3-c3ccccc3)CCC[C@]12C` (some centres not stated) was run?
**A.** 21.1 µM

What follows are molecules tested on SF-268 CNS (assay: NCI anticancer screen, dose series, 48 h).

**Q.** `CCOc1cccc(C=Nc2ccccc2SSc2ccccc2N=Cc2cccc(OCC)c2O)c1O` was tested. Which TGI did it give?
**A.** 21.5 µM

**Q.** `Cc1c2c(cc3c1C(=O)C(=O)C([C@@H](C)CO)=C3O)C(C)(C)CCC2` was tested. Which TGI did it give?
**A.** > 100 µM

**Q.** `C[N+]12CCCCC1C(COc1cccc3cccnc13)CCC2` (configuration not stated) was tested. Which TGI did it give?
**A.** > 100 µM

**Q.** Which TGI does the source give for `Cc1ccc(S(=O)(=O)NC(=O)NCc2ccc(S(N)(=O)=O)cc2)cc1` here?
**A.** > 100 µM

**Q.** How did the TGI turn out when `NC(=O)NC1NC(=O)NC1=O` (configuration not stated) was run?
**A.** > 100 µM

**Q.** For `CC[C@@]1(O)C(=O)OCc2c1cc1n(c2=O)Cc2c-1nc1ccccc1c2/C=N\NC(=O)C[n+]1ccccc1`, which TGI is on record?
**A.** > 69.5 µM

**Q.** For `COc1ccccc1C[C@@H]1OC2(C=CC(=O)CC2SC(=O)c2ccccc2)O[C@H]1Cc1ccccc1OC` (some centres not stated), which TGI is on record?
**A.** 2.44 µM

**Q.** Which TGI does the source give for `COc1ccc(CC2Cc3ccccc3CCN2)cc1OC` (configuration not stated) here?
**A.** > 50 µM

**Q.** How did the TGI turn out when `CN(C)CCn1c(=O)c2ccc(NCCNCCO)c3c(=O)c4ccccc4n(c1=O)c23` was run?
**A.** 0.977 µM

**Q.** `OCC1OC(NC(=S)NCCC(F)(F)C(F)(F)C(F)(F)C(F)(F)C(F)(F)C(F)(F)F)C(O)C(O)C1O` (configuration not stated) was tested. Which TGI did it give?
**A.** > 100 µM

**Q.** With `CSC1=N/C(=C\c2ccc(C)cc2)C(=O)N1` as the molecule, how does the TGI read?
**A.** > 100 µM

**Q.** How did the TGI turn out when `COc1cc2c(cc1OCCCNC(=O)c1cc3ccccc3[nH]1)N=C[C@@H]1CCCN1C2=O` was run?
**A.** 0.237 µM

**Q.** For `COC(=O)/C(C)=N/NC(=S)SC`, which TGI is on record?
**A.** > 100 µM

**Q.** How did the TGI turn out when `CC1=CC[C@H](C[C@H](C#CCCCC2OCCO2)O[Si](C(C)C)(C(C)C)C(C)C)C(=O)CC1` was run?
**A.** > 100 µM

**Q.** For `CC1=NN(c2cccc(S(=O)(=O)O)c2)C2(C1)C(Cl)C(=O)N2c1nc2ccccc2s1` (configuration not stated), which TGI is on record?
**A.** 22.9 µM

**Q.** For `[O-][n+]1nc(N2CCOCC2)nc2ccccc21`, which TGI is on record?
**A.** > 100 µM

**Q.** How did the TGI turn out when `COc1ccc(NC(=S)Nc2cc(C)ccn2)cc1` was run?
**A.** > 100 µM

**Q.** Which TGI does the source give for `Cc1sc2nc(N(C)C)oc(=O)c2c1C` here?
**A.** > 100 µM

**Q.** With `Cc1cccc(N/C(=C(/C(Cl)=C(Cl)Cl)[N+](=O)[O-])n2nnc3ccccc32)c1` as the molecule, how does the TGI read?
**A.** 31.1 µM

**Q.** How did the TGI turn out when `NC(CSS(=O)(=O)O)=NC1CC2CCC1C2` (configuration not stated) was run?
**A.** > 100 µM

**Q.** Which TGI does the source give for `CN1CCC23c4c5ccc(Oc6nnnn6-c6ccccc6)c4OC2c2[nH]c4ccccc4c2CC3(O)C1C5` (configuration not stated) here?
**A.** 21.2 µM

**Q.** With `Cc1cn(C2OC(CO[Si](C)(C)C(C)(C)C)/C(=C\C#N)C2O[Si](C)(C)C(C)(C)C)c(=O)[nH]c1=O` (configuration not stated) as the molecule, how does the TGI read?
**A.** > 100 µM

**Q.** For `C[C@]12CCC(O)CC1=CC[C@@H]1[C@@H]2CC[C@]2(C)C(O)[C@H](n3ccnc3)C[C@@H]12` (some centres not stated), which TGI is on record?
**A.** > 100 µM

**Q.** Which TGI does the source give for `CC(C)CCCC(C)[C@H]1CC[C@H]2n3c(nnc3-c3ccccc3)CCC[C@]12C` (some centres not stated) here?
**A.** 28.2 µM

**Q.** `OC1=C2c3ccccc3NC2Oc2cc(F)ccc21` (configuration not stated) was tested. Which TGI did it give?
**A.** 40.3 µM

Each molecule was assayed on SF-295 CNS (assay: NCI anticancer screen, dose series, 48 h).

**Q.** With `CCOc1cccc(C=Nc2ccccc2SSc2ccccc2N=Cc2cccc(OCC)c2O)c1O` as the molecule, how does the TGI read?
**A.** 37.6 µM

**Q.** How did the TGI turn out when `Cc1c2c(cc3c1C(=O)C(=O)C([C@@H](C)CO)=C3O)C(C)(C)CCC2` was run?
**A.** > 100 µM

**Q.** How did the TGI turn out when `C[N+]12CCCCC1C(COc1cccc3cccnc13)CCC2` (configuration not stated) was run?
**A.** > 100 µM

**Q.** `Cc1ccc(S(=O)(=O)NC(=O)NCc2ccc(S(N)(=O)=O)cc2)cc1` was tested. Which TGI did it give?
**A.** > 100 µM

**Q.** With `NC(=O)NC1NC(=O)NC1=O` (configuration not stated) as the molecule, how does the TGI read?
**A.** > 100 µM

**Q.** Which TGI does the source give for `CC[C@@]1(O)C(=O)OCc2c1cc1n(c2=O)Cc2c-1nc1ccccc1c2/C=N\NC(=O)C[n+]1ccccc1` here?
**A.** > 21.3 µM

**Q.** For `COc1ccccc1C[C@@H]1OC2(C=CC(=O)CC2SC(=O)c2ccccc2)O[C@H]1Cc1ccccc1OC` (some centres not stated), which TGI is on record?
**A.** 4.14 µM

**Q.** With `COc1ccc(CC2Cc3ccccc3CCN2)cc1OC` (configuration not stated) as the molecule, how does the TGI read?
**A.** > 50 µM

**Q.** For `CN(C)CCn1c(=O)c2ccc(NCCNCCO)c3c(=O)c4ccccc4n(c1=O)c23`, which TGI is on record?
**A.** 14.6 µM

**Q.** `OCC1OC(NC(=S)NCCC(F)(F)C(F)(F)C(F)(F)C(F)(F)C(F)(F)C(F)(F)F)C(O)C(O)C1O` (configuration not stated) was tested. Which TGI did it give?
**A.** > 100 µM

**Q.** `CSC1=N/C(=C\c2ccc(C)cc2)C(=O)N1` was tested. Which TGI did it give?
**A.** > 100 µM

**Q.** With `COc1cc2c(cc1OCCCNC(=O)c1cc3ccccc3[nH]1)N=C[C@@H]1CCCN1C2=O` as the molecule, how does the TGI read?
**A.** > 31.9 µM

**Q.** With `COC(=O)/C(C)=N/NC(=S)SC` as the molecule, how does the TGI read?
**A.** > 100 µM

**Q.** For `CC1=CC[C@H](C[C@H](C#CCCCC2OCCO2)O[Si](C(C)C)(C(C)C)C(C)C)C(=O)CC1`, which TGI is on record?
**A.** > 100 µM

**Q.** Which TGI does the source give for `CC1=NN(c2cccc(S(=O)(=O)O)c2)C2(C1)C(Cl)C(=O)N2c1nc2ccccc2s1` (configuration not stated) here?
**A.** 28 µM
